Measured values published in PMC10970734, “Identification of an Intravenous Injectable NK1 Receptor Antagonist for Use in Traumatic Brain Injury” (International Journal of Molecular Sciences, 2024).

Legend:
[1] = design: method as in PMID 20795794, PMID 18042005; details: slow infusion 20-30 min; cited from earlier work
[2] = system: rodent model of TBI; test: Cognitive function after TBI, Barnes maze; format: in vivo, Sprague Dawley rats; details: rat TBI, 10 mg/kg 30 min post-injury, 10 days
Procedure: Cognitive outcome was assessed using the Barnes maze in order to reduce the potential confounding effects that may be associated with tests such as the Morris water maze. In the Barnes maze, animals were placed under a cover in the centre of an elevated 1.2 m diameter board containing 19 holes around the periphery. One hole contained the entrance to a darkened escape tunnel that was not visible from the surface, relying on the animal to use surrounding visual cues to locate the tunnel. The time, in seconds, for the animal to locate and enter the escape tunnel was recorded. Following pre-training, the effect of injury, and post-injury treatment, on the time taken for the animal to locate the tunnel was measured (Figure 7). […]
Injury was induced in halothane-anesthetized (ProVet) male Sprague Dawley rats (400 ± 20 g) using acceleration-induced impact TBI [29, 93]. […] Blood pressure was monitored, both before and after injury, using a femoral arterial line. […]
Motor and cognitive outcomes in animals (n = 6 per group) were assessed using the rotarod and Barnes maze, respectively, as described in detail elsewhere. […] The rotational speed of the device was increased from 0 to 30 r.p.m. and the duration (in seconds) when the animals either completed the task, fell from the rods, or gripped the rods and spun for two consecutive revolutions rather than walking actively was recorded as the rotarod score. […]

[3] = system: rodent model of TBI; test: Motor function after TBI, rotarod test; format: in vivo, Sprague Dawley rats; details: rat TBI, 10 mg/kg 30 min post-injury
From the text: The maximum duration of the task was 120 s.
Injury was induced in halothane-anesthetized (ProVet) male Sprague Dawley rats (400 ± 20 g) using acceleration-induced impact TBI [29, 93]. This model involves impacting a 10 mm diameter, 3 mm thick stainless steel disc fixed centrally to the exposed skull between the lambda and bregma with an accelerating impactor. The impactor was a 450 g brass weight dropped from a height of 2 m. […] All animals were fed and watered ad libitum before the induction of injury. During both surgery and the immediate recovery phase, rat rectal temperature was maintained using a thermostatically controlled heating pad. Immediately after injury, animals were manually ventilated until stable respiration was restored, usually in <5 min. After injury, all wounds were sutured. Blood pressure was monitored, both before and after injury, using a femoral arterial line.
Motor and cognitive outcomes in animals (n = 6 per group) were assessed using the rotarod and Barnes maze, respectively, as described in detail elsewhere [64]. The rotarod consists of a motorized rotating assembly of 18 rods (1 mm in diameter) upon which the animals were placed. The rotational speed of the device was increased from 0 to 30 r.p.m. and the duration (in seconds) when the animals either completed the task, fell from the rods, or gripped the rods and spun for two consecutive revolutions rather than walking actively was recorded as the rotarod score. […] After activating the bright lights and aversive auditory stimulus, the latency (in seconds) for the animal to locate and enter the escape tunnel was recorded. All animals were pretrained on both functional outcome tests twice per day over 5 days before injury to establish a normal, uninjured baseline.

[4] = system: rodent model of TBI; test: Mortality after severe impact-acceleration TBI; format: in vivo, Sprague Dawley rats; details: rat severe TBI, 10 mg/kg 30 min after injury
Procedure: Injury was induced using an impact-acceleration model of TBI which generates a rodent form of diffuse axonal injury, a major feature of clinical head injury. The level of injury induced in these studies was classified as “severe” [60]. In terms of assessing treatment effects, the study was performed in a blinded manner. […] In line with the “severe” nature of the injury, significant mortality rates were observed within the cohort of injured animals. However, the mortality rates varied between the treatment groups. In the “drug vehicle” group, a mortality rate of 30% was observed, which is in line with the nature of the injury.
Injury was induced in halothane-anesthetized (ProVet) male Sprague Dawley rats (400 ± 20 g) using acceleration-induced impact TBI [29, 93]. This model involves impacting a 10 mm diameter, 3 mm thick stainless steel disc fixed centrally to the exposed skull between the lambda and bregma with an accelerating impactor. The impactor was a 450 g brass weight dropped from a height of 2 m. Earlier studies have shown that the impact acceleration injury produces diffuse axonal injury, oedema, BBB opening, Mg^2+ decline, and moderate-to-severe neurologic deficits. All animals were fed and watered ad libitum before the induction of injury. […] Blood pressure was monitored, both before and after injury, using a femoral arterial line. […]

[5] = system: NK1R; details: cited from earlier work
[6] = design: method as in PMID 20795794; details: parent drug; cited from earlier work

C[C@@H](O[C@H]1OCCN(Cc2nc(O)n(P(=O)(O)O)n2)[C@H]1c1ccc(F)cc1)c1cc(C(F)(F)F)cc(C(F)(F)F)c1 [Fosaprepitant, fosaprepitant]
Time to conversion to aprepitant after end of infusion [1]: ≤ 30 min

C[C@]12N[C@H](Cc3ccccc31)c1ccccc12 [MK801]
Cognitive function, Barnes maze time to locate escape tunnel [2]: performance returning close to pre-injury by the end of the study period | Motor function, rotarod score ([3]; 10 days): did not provide any beneficial outcome relative to the drug vehicle | Recovery of motor function over the 10-day test period ([3]; rotarod): approximately 50% | Mortality rate [4]: 48%

CC(=O)N[C@@H](Cc1c[nH]c2ccccc12)C(=O)O [NAT, N-acetyl-L-tryptophan]
NK1R binding [5]: lack of NK1R binding

C[C@@H](O[C@H]1OCCN(Cc2n[nH]c(=O)[nH]2)[C@H]1c1ccc(F)cc1)c1cc(C(F)(F)F)cc(C(F)(F)F)c1 [aprepitant]
Aqueous solubility [6]: 0.2 µg/mL
